Test results reported in US9237747B2, “Herbicidal compositions comprising 4-amino-3-chloro-5-fluoro-6-(4-chloro-2-fluoro-3-methoxyphenyl) pyridine-2-carboxylic acid or a derivative thereof and insecticides” (priority 2013, dated 2016).

Experiments:
SCPMA = test: In-water applied weed control, transplanted paddy rice (greenhouse); type: in vivo, Schoenoplectus maritimus
Protocol: Weed seeds or nutlets of the desired test plant species were planted in puddled soil (mud) prepared by mixing a shredded, non-sterilized mineral soil (50.5 percent silt, 25.5 percent clay, and 24 percent sand, with a pH of about 7.6 and an organic matter content of about 2.9 percent) and water at a 1:1 volumetric ratio. The prepared mud was dispensed in 365 mL aliquots into 16-ounce (oz.) non-perforated plastic pots with a surface area of 86.59 square centimeters (cm^2) leaving a headspace of 3 centimeters (cm) in each pot. Rice seeds were planted in Sun Gro MetroMix® 306 planting mixture, which typically has a pH of 6.0 to 6.8 and an organic matter content of about 30 percent, in plastic plug trays. Seedlings at the second or third leaf stage of growth were transplanted into 860 mL of mud contained in 32-oz. non-perforated plastic pots with a surface area of 86.59 cm^2 4 days prior to herbicide application. The paddy was created by filling the headspace of the pots with 2.5 to 3 cm of water. When required to ensure good germination and healthy plants, a fungicide treatment and/or other chemical or physical treatment was applied. The plants were grown for 4-22 days in a greenhouse with an approximate 14 h photoperiod which was maintained at about 29° C. during the day and about 26° C. during the night. Nutrients were added as Osmocote® (17:6:10, N:P:K+minor nutrients) at 2 grams (g) per 16-oz. pot and 4 g per 32-oz. pot. Water was added on a regular basis to maintain the paddy flood, and supplemental lighting was provided with overhead metal halide 1000-Watt lamps as necessary. The plants were employed for testing when they reached the first through fourth true leaf stage.
Treatments consisted of the acid or esters of 4-amino-3-chloro-5-fluoro-6-(4-chloro-2-fluoro-3-methoxy-phenyl)pyridine-2-carboxylic acid (compound A) each formulated as an SC (suspension concentrate) and various herbicidal components alone and in combination. Forms of compound A were applied on an acid equivalent basis.
Other […] components were applied on an active ingredient basis and consisted of etofenprox (technical grade material) and sulfoxaflor formulated as Sulfoxaflor WG.
Treatment requirements for each compound or herbicidal component were calculated based upon the rates being tested, the concentration of active ingredient or acid equivalent in the formulation, an application volume of 2 mL per component per pot, and an application area of 86.59 cm^2 per pot.
For formulated compounds, a measured amount was placed in an individual 100 or 200 mL glass vial and was dissolved in a volume of 1.25% (v/v) AgriDex® crop oil concentrate to obtain application solutions.
For technical grade compounds, a weighed amount was placed in an individual 100 to 200 mL glass vial and was dissolved in a volume of acetone to obtain concentrated stock solutions.
Applications were made by injecting with a pipetter appropriate amounts of the application solutions, individually and sequentially, into the aqueous layer of the paddy. Control plants were treated in the same manner with the solvent blank. Applications were made so that all treated plant material received the same concentrations of acetone and crop oil concentrate.
(§1) The treated plants and control plants were placed in a greenhouse as described above and water was added as needed to maintain a paddy flood. After approximately 3 weeks the condition of the test plants as compared with that of the untreated plants was determined visually and scored on a scale of 0 to 100 percent where 0 corresponds to no injury or growth inhibition and 100 corresponds to complete kill.
Colby's equation was used to determine the herbicidal effects expected from the mixtures (Colby, S. R. Calculation of the synergistic and antagonistic response of herbicide combinations. Weeds 1967, 15, 20-22.). […]

ECHCO = test: Postemergence foliar-applied weed control, direct-seeded rice (greenhouse); type: in vivo, Echinochloa colonum
Protocol: Seeds or nutlets of the desired test plant species were planted in a soil matrix prepared by mixing a loam or sandy loam soil (e.g., 28.6 percent silt, 18.8 percent clay, and 52.6 percent sand, with a pH of about 5.8 and an organic matter content of about 1.8 percent) and calcareous grit in an 80 to 20 ratio. The soil matrix was contained in plastic pots with a volume of 1 quart and a surface area of 83.6 square centimeters (cm^2). […] The plants were grown for 8-22 days in a greenhouse with an approximate 14 hour (h) photoperiod which was maintained at about 29° C. during the day and 26° C. during the night. Nutrients (Peters Excel® 15-5-15 5-Ca 2-Mg and iron chelate) were applied in the irrigation solution as needed and water was added on a regular basis. Supplemental lighting was provided with overhead metal halide 1000-Watt lamps as necessary. The plants were employed for testing when they reached the first through fourth true leaf stage.
Treatments consisted of the acid or esters of 4-amino-3-chloro-6-(4-chloro-2-fluoro-3-methoxyphenyl)-5-fluoropyridine-2-carboxylic acid (Compound A), each formulated as an SC (suspension concentrate), and various insecticidal components alone and in combination. Forms of compound A were applied on an acid equivalent basis.
For treatments comprised of formulated compounds, measured amounts of compounds were placed individually in 25 mL glass vials and diluted in a volume of 1.25% volume per volume (v/v) Agri-Dex® crop oil concentrate to obtain 12× stock solutions. […] Application solutions were prepared by adding an appropriate amount of each stock solution (e.g., 1 mL) and diluted to the appropriate final concentrations with the addition of […] of an aqueous mixture of 1.25% (v/v) crop oil concentrate so that the final spray solutions contained 1.25+/−0.05% (v/v) crop oil concentrate.
As required, additional water and/or 97:3 v/v acetone/DMSO was added to individual application solutions so that the final acetone and DMSO concentrations of the application solutions being compared were 8.1% and 0.25%, respectively.
All stock solutions and applications solutions were visually inspected for compound compatibility prior to application. Spray solutions were applied to the plant material with an overhead Mandel track sprayer equipped with 8002E nozzles calibrated to deliver 187 L/ha over an application area of 0.503 square meters (m^2) at a spray height of 18 to 20 inches (46 to 50 cm) above average plant canopy height. Control plants were sprayed in the same manner with the solvent blank.
as §1, with “watered by sub-irrigation” for “water was added as needed”, “prevent wash-off of the test compounds.” for “maintain a paddy flood.”, “weeks,” for “weeks”, “to” for “with”
Colby's equation was used to determine the herbicidal effects expected from the mixtures (Colby, S. R. Calculation of the synergistic and antagonistic response of herbicide combinations. Weeds 1967, 15, 20-22.).
The following equation was used to calculate the expected activity of mixtures containing two active ingredients, A and B: Expected=A+B−(A×B/100)

Q: Which “Visual Weed Control (%) - 21 DAA SCPMA Obs” value (SCPMA; 4.38 g ae/ha alone) does the source give for `COc1c(Cl)ccc(-c2nc(C(=O)O)c(Cl)c(N)c2F)c1F` [Compound A Acid, 4-amino-3-chloro-6-(4-chloro-2-fluoro-3-methoxyphenyl)-5-fluoropyridine-2-carboxylic acid] here?
A: 0%

Q: And the “Visual Weed Control (%) - 21 DAA SCPMA Obs” value (SCPMA; 8.75 g ae/ha alone)?
A: 0%

Q: And the “Visual Weed Control (%) - 22 DAA ECHCO Obs” value (ECHCO; 4.38 g ae/ha alone)?
A: 55%

Q: And the “Visual Weed Control (%) - 21 DAA ECHCO Obs” value (ECHCO; 4.38 g ae/ha alone)?
A: 60%

Q: And the “Visual Weed Control (%) - 21 DAA ECHCO Obs” value (ECHCO; 8.75 g ae/ha alone)?
A: 90%

Q: And the “Visual Weed Control (%) - 21 DAA ECHCO Obs” value (ECHCO; 17.5 g ae/ha alone)?
A: 95%

Q: How did the “Visual Weed Control (%) - 21 DAA SCPMA Obs” value (SCPMA; 21 DAA, 4.38 g ae/ha alone) turn out when `COc1c(Cl)ccc(-c2nc(C(=O)OCc3ccccc3)c(Cl)c(N)c2F)c1F` [Compound A Benzyl Ester] was run?
A: 0%

Q: And the “Visual Weed Control (%) - 21 DAA SCPMA Obs” value (SCPMA; 21 DAA, 8.75 g ae/ha alone)?
A: 0%

Q: What about the “Visual Weed Control (%) - 21 DAA SCPMA Obs” value (SCPMA; 21 DAA, 17.5 g ae/ha alone) of the same compound?
A: 0%

Q: And the “Visual Weed Control (%) - 19 DAA ECHCO Obs” value (ECHCO; 8 g ae/ha alone)?
A: 65%

Q: What about the “Visual Weed Control (%) - 20 DAA ECHCO Obs” value (ECHCO; 8 g ae/ha alone) of the same compound?
A: 65%

Q: What about the “Visual Weed Control (%) - 19 DAA ECHCO Obs” value (ECHCO; 16 g ae/ha alone) of the same compound?
A: 90%

Q: And the “Visual Weed Control (%) - 19 DAA ECHCO Obs” value (ECHCO; 19 DAA, 8 g ae/ha alone)?
A: 65%

Q: And the “Visual Weed Control (%) - 19 DAA ECHCO Obs” value (ECHCO; 19 DAA, 16 g ae/ha alone)?
A: 90%

Q: What about the “Visual Weed Control (%) - 19 DAA ECHCO Obs” value (ECHCO; 19 DAA, 32 g ae/ha alone) of the same compound?
A: 95%

Q: And the “Visual Weed Control (%) - 19 DAA ECHCO Obs” value (ECHCO; 32 g ae/ha alone)?
A: 95%

Q: Which results are given for `CC(c1ccc(C(F)(F)F)nc1)S(C)(=O)=NC#N` (stereo not drawn) [Sulfoxaflor, N-[methyloxido[1-[6-(trifluoromethyl)-3-pyridinyl]ethyl]-λ^4-sulfanylidene]cyanamide]?
A: Visual Weed Control (%) - 21 DAA SCPMA Obs (SCPMA; 21 DAA, 50 g ai/ha alone): 0%; Visual Weed Control (%) - 21 DAA SCPMA Obs (SCPMA; 50 g ai/ha alone): 0%; Visual Weed Control (%) - 21 DAA ECHCO Obs (ECHCO; 12.5 g ai/ha alone): 0%; Visual Weed Control (%) - 21 DAA ECHCO Obs (ECHCO; 25 g ai/ha alone): 0%; Visual Weed Control (%) - 21 DAA ECHCO Obs (ECHCO; 50 g ai/ha alone): 0%
